In US5955426A, “Cyclic hexapeptide somatostatin analogues” (Diatide, Inc., priority 1997, dated 1999):
Square brackets hold non-standard residues; d marks the D form. Peptide text beside a SMILES is read from it. * marks the point of attachment. X11 = NCCCC[C@H](NC(=O)C*)C(=O)NCCCC[C@H](N)C(=O)NCC(=O)N[C@@H](CS)C(N)=O; X13 = CC(=O)NCSC[C@H](NC(=O)CNC(=O)[C@H](CSCNC(C)=O)NC(=O)C*)C(N)=O; X7 = NC(=O)[C@H](CS)NC(=O)CNC(=O)[C@@H](N)CCCCNC(=O)C*; X5 = O=C(CNC(=O)[C@H](CS)NC(=O)C*)N[C@@H](CS)C(=O)O; X6 = NC(=O)[C@H](CS)NC(=O)CNC(=O)[C@H](CS)NC(=O)C*; X12 = NC(=O)[C@H](CS)NC(=O)CNC(=O)CNC(=O)C*; NMeF = CN[C@@H](Cc1ccccc1)C(=O)O; hCys = N[C@@H](CCS)C(=O)O

What follows are compounds tested against T1, somatostatin receptor (Rattus norvegicus, UniProt P30680) (assay: Inhibition of binding of (125I-Tyr11)somatostatin-14 to AR42J rat pancreatic tumor cell membranes). Conditions: 0.5 nM (125I-Tyr11)somatostatin-14, 25 min at 30° C., read-out: K1 (inhibition constant).
T1 construct: endogenous in cells; host or cells: AR42J rat pancreatic tumor cell line (membrane preparation)
Description: Inhibition of Binding of (^125 I-Tyr^11)somatostatin-14 to AR42J Rat Pancreatic Tumor Cell Membranes
The rat pancreatic tumor cell line AR42J which expresses the somatostatin receptor was cultured in Dulbecco's minimal essential media (DMEM) supplemented with 10% fetal bovine serum (FBS) and 8 mM glutamine in a humidified 5% CO2 atmosphere at 37° C. in T-flasks. Harvested cells were homogenized in cold 50 mM Tris-HCl buffer (pH 7.4) and the homogenate then centrifuged at 39,000 g for 10 min at 4° C. Pellets were washed once with buffer and then resuspended in an ice-cold solution of 10 mM Tris-HCl (pH 7.4). Equal aliquots of this cell membrane preparation were incubated with (^125 I-Tyr^11)somatostatin-14 (at a final concentration of 0.5 nM and 750,000 cpm/mL, at a specific activity of 2000 Ci/mmol, Amersham, Arlington Heights, Ill.) and peptide at a final concentration of from 10^-11 M to 10^-6 M in a solution of 50 mM HEPES (pH 7.4) containing 1% bovine serum albumin (BSA), 5 mM MgCl2, Trasylol (200,000 International Units), bacitracin (0.02 mg/mL) and phenylmethylsulfonylfluoride (0.02 mg/mL) for 25 min at 30° C. Using a filtration manifold, this mixture was filtered through a polyethyleneimine-washed GC/F filter (Whatman, Maidstone, England), and the residue remaining on the filter washed thrice with 5 mL cold HEPES buffer. The filter and a sample of the filter washings were then counted in a gamma counter. To assess non-specific binding, the assay was performed in the presence of unlabeled somatostatin-14 at 200 nM. Data analysis including Hill plots of the data provided inhibition constants (see Bylund & Yamamura, "Methods of receptor binding", in Methods in Neurotransmitter Receptor Analysis, Yamamura et al., eds., Raven Press: New York, 1990).

T1 sequence (P30680 whole entry): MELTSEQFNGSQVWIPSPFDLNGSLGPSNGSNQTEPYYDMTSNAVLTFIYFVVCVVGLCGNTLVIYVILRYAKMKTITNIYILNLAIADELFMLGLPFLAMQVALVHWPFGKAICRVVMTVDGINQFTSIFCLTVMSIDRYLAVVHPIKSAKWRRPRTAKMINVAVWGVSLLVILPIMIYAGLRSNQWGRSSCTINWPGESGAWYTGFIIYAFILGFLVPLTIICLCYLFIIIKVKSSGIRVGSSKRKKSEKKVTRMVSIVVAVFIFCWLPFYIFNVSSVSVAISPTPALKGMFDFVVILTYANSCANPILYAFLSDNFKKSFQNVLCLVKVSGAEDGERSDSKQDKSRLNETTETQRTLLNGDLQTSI

Ki [nM] | Compound
1.8 | CC(C)[C@@H]1NC(=O)[C@H](CCCCN)NC(=O)[C@@H](Cc2c[nH]c3ccccc23)NC(=O)[C@H](Cc2ccc(O)cc2)NC(=O)[C@H](Cc2ccccc2)N(C)C(=O)[C@H](CCSCC(=O)N[C@@H](CS)C(=O)NCC(=O)N[C@@H](CS)C(=O)O)NC1=O [cyclo.(N-CH3)FYWD KV.Hcy(CH2 CO.CGC)] (cyclo(KV[hCys](X5)[NMeF]Y[dW]))
0.79 | CC(=O)NCSC[C@H](NC(=O)CNC(=O)[C@H](CSCNC(C)=O)NC(=O)CSCC[C@@H]1NC(=O)[C@H](C(C)C)NC(=O)[C@H](CCCCN)NC(=O)[C@@H](Cc2c[nH]c3ccccc23)NC(=O)[C@H](Cc2ccc(O)cc2)NC(=O)[C@H](Cc2ccccc2)N(C)C1=O)C(N)=O [cyclo.(N-CH3)FYWD KV.Hcy(CH2 CO.CAcm GCAcm.amide)] (cyclo(KV[hCys](X13)[NMeF]Y[dW]))
2.4 | CC(C)[C@@H]1NC(=O)[C@H](CCCCN)NC(=O)[C@@H](Cc2c[nH]c3ccccc23)NC(=O)[C@H](Cc2ccc(O)cc2)NC(=O)[C@H](Cc2ccccc2)N(C)C(=O)[C@H](CCSCC(=O)NCC(=O)NCC(=O)N[C@@H](CS)C(N)=O)NC1=O [cyclo.(N-CH3)FYWD KV.Hcy(CH2 CO.GGC.amide)] (cyclo([NMeF]Y[dW]KV[hCys](X12)))
1.5 | CC(C)[C@@H]1NC(=O)[C@H](CCCCN)NC(=O)[C@@H](Cc2c[nH]c3ccccc23)NC(=O)[C@H](Cc2ccc(O)cc2)NC(=O)[C@H](Cc2ccccc2)N(C)C(=O)[C@H](CCSCC(=O)N[C@@H](CS)C(=O)NCC(=O)N[C@@H](CS)C(N)=O)NC1=O [cyclo.(N-CH3)FYWD KV.Hcy(CH2 CO.CGC.amide)] (cyclo([NMeF]Y[dW]KV[hCys](X6)))
2 | CC(C)[C@@H]1NC(=O)[C@H](CCCCN)NC(=O)[C@@H](Cc2c[nH]c3ccccc23)NC(=O)[C@H](Cc2ccc(O)cc2)NC(=O)[C@H](Cc2ccccc2)N(C)C(=O)[C@H](CCSCC(=O)NCCCC[C@H](N)C(=O)NCC(=O)N[C@@H](CS)C(N)=O)NC1=O [cyclo.(N-CH3)FYWD KV.Hcy(CH2 CO.(ε-K)GC.amide)] (cyclo([NMeF]Y[dW]KV[hCys](X7)))
0.65 | CC(C)[C@@H]1NC(=O)[C@H](CCCCN)NC(=O)[C@@H](Cc2c[nH]c3ccccc23)NC(=O)[C@H](Cc2ccc(O)cc2)NC(=O)[C@H](Cc2ccccc2)N(C)C(=O)[C@H](CCSCC(=O)N[C@@H](CCCCN)C(=O)NCCCC[C@H](N)C(=O)NCC(=O)N[C@@H](CS)C(N)=O)NC1=O [cyclo.(N-CH3)FYWD KV.Hcy(CH2 CO.K(ε-K)GC.amide)] (cyclo([NMeF]Y[dW]KV[hCys](X11)))
